{
  "source": "paper PMC4441267",
  "key": {"[1]": {"experiment": "CuAAC macrocyclisation of azide/terminal alkyne linear peptidomimetics to 1,4-triazole (CuI 2 eq, DIPEA 3 eq, Ar-degassed), then Boc removal (TMSCl/MeOH GP4; HCl/dioxane GP5 for A13w, J13w)", "details": "THF (reflux), 1.2 mM, 66.0 °C, 18.0 h, 2 steps"}, "[2]": {"experiment": "RuAAC macrocyclisation of azide/terminal alkyne linear peptidomimetics to 1,5-triazole ([Cp*RuCl]4 0.1 eq, Ar-degassed), then Boc removal (TMSCl/MeOH GP4 or HCl/dioxane GP5)", "details": "toluene (reflux), 1.25 mM, 111.0 °C, 18.0 h, 2 steps"}},
  "data": [
    {"smiles": "COC(=O)[C@@H]1CCCn2cc(nn2)CNC(=O)NCCCC[C@H](NC(=O)OC(C)(C)C)C(=O)N1", "note": "[Boc-Lys(CONH-propargyl)-Orn(N3)-OMe]", "values": [
      {"measurement": "ring closure, yield over several steps", "setting": "[1]; from C#CCNC(=O)NCCCC[C@H](NC(=O)OC(C)(C)C)C(=O)N[C@@H](CCCN=[N+]=[N-])C(=O)OC, 18-membered ring", "value": 93, "unit": "%"}
    ]},
    {"smiles": "COC(=O)[C@@H]1CNC(=O)[C@H](Cc2ccccc2)n2cc(nn2)CCC(=O)NCC[C@H](NC(=O)OC(C)(C)C)C(=O)N1", "note": "[Boc-Dab(4-pentynoyl)-Dap(N3-Phe)-OMe]", "values": [
      {"measurement": "ring closure, yield over several steps", "setting": "[1]; from C#CCCC(=O)NCC[C@H](NC(=O)OC(C)(C)C)C(=O)N[C@@H](CNC(=O)[C@H](Cc1ccccc1)N=[N+]=[N-])C(=O)OC, 17-membered ring", "value": 81, "unit": "%"}
    ]},
    {"smiles": "COC(=O)[C@@H]1CCCn2cc(nn2)CNC(=O)NCCC[C@H](NC(=O)OC(C)(C)C)C(=O)N1", "note": "[Boc-Orn(CONH-propargyl)-Orn(N3)-OMe]", "values": [
      {"measurement": "ring closure, yield over several steps", "setting": "[1]; from C#CCNC(=O)NCCC[C@H](NC(=O)OC(C)(C)C)C(=O)N[C@@H](CCCN=[N+]=[N-])C(=O)OC, 17-membered ring", "value": 99, "unit": "%"}
    ]},
    {"smiles": "COC(=O)[C@@H]1CNC(=O)[C@H](Cc2ccccc2)n2cc(nn2)CCC(=O)NCCC[C@H](NC(=O)OC(C)(C)C)C(=O)N1", "note": "[Boc-Orn(4-pentynoyl)-Dap(N3-Phe)-OMe]", "values": [
      {"measurement": "ring closure, yield over several steps", "setting": "[1]; from C#CCCC(=O)NCCC[C@H](NC(=O)OC(C)(C)C)C(=O)N[C@@H](CNC(=O)[C@H](Cc1ccccc1)N=[N+]=[N-])C(=O)OC, 18-membered ring", "value": 45, "unit": "%"}
    ]},
    {"smiles": "COC(=O)[C@@H]1CCCCn2cc(nn2)CCCC(=O)NCCC[C@H](NC(=O)OC(C)(C)C)C(=O)N1", "note": "[Boc-Orn(5-hexynoyl)-Lys(N3)-OMe]", "values": [
      {"measurement": "ring closure, yield over several steps", "setting": "[1]; from C#CCCCC(=O)NCCC[C@H](NC(=O)OC(C)(C)C)C(=O)N[C@@H](CCCCN=[N+]=[N-])C(=O)OC, 19-membered ring", "value": 99, "unit": "%"}
    ]},
    {"smiles": "COC(=O)[C@@H]1CNC(=O)[C@H](Cc2ccccc2)n2cc(nn2)CNC(=O)NCC[C@H](NC(=O)OC(C)(C)C)C(=O)N1", "note": "[Boc-Dab(CONH-propargyl)-Dap(N3-Phe)-OMe]", "values": [
      {"measurement": "ring closure, yield over several steps", "setting": "[1]; from C#CCNC(=O)NCC[C@H](NC(=O)OC(C)(C)C)C(=O)N[C@@H](CNC(=O)[C@H](Cc1ccccc1)N=[N+]=[N-])C(=O)OC, 17-membered ring", "value": 64, "unit": "%"}
    ]},
    {"smiles": "COC(=O)[C@@H]1CCCn2cc(nn2)CCC(=O)NCCCC[C@H](NC(=O)OC(C)(C)C)C(=O)N1", "note": "[Boc-Lys(4-pentynoyl)-Orn(N3)-OMe]", "values": [
      {"measurement": "ring closure, yield over several steps", "setting": "[1]; from C#CCCC(=O)NCCCC[C@H](NC(=O)OC(C)(C)C)C(=O)N[C@@H](CCCN=[N+]=[N-])C(=O)OC, 18-membered ring", "value": 99, "unit": "%"}
    ]},
    {"smiles": "COC(=O)[C@@H]1CCCCNC(=O)[C@H](Cc2ccccc2)n2cc(nn2)CCCC(=O)NCCC[C@H](NC(=O)OC(C)(C)C)C(=O)N1", "note": "[Boc-Orn(5-hexynoyl)-Lys(N3-Phe)-OMe]", "values": [
      {"measurement": "ring closure, yield over several steps", "setting": "[1]; from C#CCCCC(=O)NCCC[C@H](NC(=O)OC(C)(C)C)C(=O)N[C@@H](CCCCNC(=O)[C@H](Cc1ccccc1)N=[N+]=[N-])C(=O)OC, 22-membered ring", "value": 99, "unit": "%"}
    ]},
    {"smiles": "COC(=O)[C@@H]1CCCCn2cc(nn2)CNC(=O)NCC[C@H](NC(=O)OC(C)(C)C)C(=O)N1", "note": "[Boc-Dab(CONH-propargyl)-Lys(N3)-OMe]", "values": [
      {"measurement": "ring closure, yield over several steps", "setting": "[1]; from C#CCNC(=O)NCC[C@H](NC(=O)OC(C)(C)C)C(=O)N[C@@H](CCCCN=[N+]=[N-])C(=O)OC, 17-membered ring", "value": 99, "unit": "%"}
    ]},
    {"smiles": "COC(=O)[C@@H]1CCCCNC(=O)[C@H](Cc2ccccc2)n2cc(nn2)CCCC(=O)NC[C@H](NC(=O)OC(C)(C)C)C(=O)N1", "note": "[Boc-Dap(5-hexynoyl)-Lys(N3-Phe)-OMe]", "values": [
      {"measurement": "ring closure, yield over several steps", "setting": "[1]; from C#CCCCC(=O)NC[C@H](NC(=O)OC(C)(C)C)C(=O)N[C@@H](CCCCNC(=O)[C@H](Cc1ccccc1)N=[N+]=[N-])C(=O)OC, 20-membered ring", "value": 99, "unit": "%"}
    ]},
    {"smiles": "COC(=O)[C@@H]1CCCCNC(=O)[C@H](Cc2ccccc2)n2cc(nn2)CNC(=O)NC[C@H](NC(=O)OC(C)(C)C)C(=O)N1", "note": "[Boc-Dap(CONH-propargyl)-Lys(N3-Phe)-OMe]", "values": [
      {"measurement": "ring closure, yield over several steps", "setting": "[1]; from C#CCNC(=O)NC[C@H](NC(=O)OC(C)(C)C)C(=O)N[C@@H](CCCCNC(=O)[C@H](Cc1ccccc1)N=[N+]=[N-])C(=O)OC, 19-membered ring", "value": 99, "unit": "%"}
    ]},
    {"smiles": "COC(=O)[C@@H]1CCCn2cc(nn2)CCCC(=O)NCCCC[C@H](NC(=O)OC(C)(C)C)C(=O)N1", "note": "[Boc-Lys(5-hexynoyl)-Orn(N3)-OMe]", "values": [
      {"measurement": "ring closure, yield over several steps", "setting": "[1]; from C#CCCCC(=O)NCCCC[C@H](NC(=O)OC(C)(C)C)C(=O)N[C@@H](CCCN=[N+]=[N-])C(=O)OC, 19-membered ring", "value": 40, "unit": "%"}
    ]},
    {"smiles": "COC(=O)[C@@H]1CCCn2cc(nn2)CCC(=O)NCCCC[C@H](NC(=O)OC(C)(C)C)C(=O)N[C@H](C(=O)OC)CCC(=O)N1", "note": "[Boc-Lys(4-pentynoyl)-Glu(gamma-Orn(N3)-OMe)-OMe]", "values": [
      {"measurement": "ring closure, yield over several steps", "setting": "[1]; from C#CCCC(=O)NCCCC[C@H](NC(=O)OC(C)(C)C)C(=O)N[C@@H](CCC(=O)N[C@@H](CCCN=[N+]=[N-])C(=O)OC)C(=O)OC, 23-membered ring", "value": 86, "unit": "%"}
    ]},
    {"smiles": "COC(=O)[C@@H]1CCCn2cc(nn2)CCCC(=O)NCCC[C@H](NC(=O)OC(C)(C)C)C(=O)N1", "note": "[Boc-Orn(5-hexynoyl)-Orn(N3)-OMe]", "values": [
      {"measurement": "ring closure, yield over several steps", "setting": "[1]; from C#CCCCC(=O)NCCC[C@H](NC(=O)OC(C)(C)C)C(=O)N[C@@H](CCCN=[N+]=[N-])C(=O)OC, 18-membered ring", "value": 71, "unit": "%"}
    ]},
    {"smiles": "COC(=O)[C@@H]1CCCCn2cc(nn2)CCC(=O)NCCCC[C@H](NC(=O)OC(C)(C)C)C(=O)N1", "note": "[Boc-Lys(4-pentynoyl)-Lys(N3)-OMe]", "values": [
      {"measurement": "ring closure, yield over several steps", "setting": "[1]; from C#CCCC(=O)NCCCC[C@H](NC(=O)OC(C)(C)C)C(=O)N[C@@H](CCCCN=[N+]=[N-])C(=O)OC, 19-membered ring", "value": 30, "unit": "%"}
    ]},
    {"smiles": "COC(=O)[C@@H]1CCCCNC(=O)[C@H](Cc2ccccc2)n2nncc2CNC(=O)NC[C@H](N)C(=O)N1", "note": "[Boc-Dap(CONH-propargyl)-Lys(N3-Phe)-OMe]", "values": [
      {"measurement": "ring closure, yield over several steps", "setting": "[2]; from C#CCNC(=O)NC[C@H](NC(=O)OC(C)(C)C)C(=O)N[C@@H](CCCCNC(=O)[C@H](Cc1ccccc1)N=[N+]=[N-])C(=O)OC, 18-membered ring", "value": 38, "unit": "%"}
    ]},
    {"smiles": "COC(=O)[C@@H]1CCCCNC(=O)[C@H](Cc2ccccc2)n2nncc2CCCC(=O)NC[C@H](N)C(=O)N1", "note": "[Boc-Dap(5-hexynoyl)-Lys(N3-Phe)-OMe]", "values": [
      {"measurement": "ring closure, yield over several steps", "setting": "[2]; from C#CCCCC(=O)NC[C@H](NC(=O)OC(C)(C)C)C(=O)N[C@@H](CCCCNC(=O)[C@H](Cc1ccccc1)N=[N+]=[N-])C(=O)OC, 19-membered ring", "value": 99, "unit": "%"}
    ]},
    {"smiles": "COC(=O)[C@@H]1CCCn2nncc2CCC(=O)NCC[C@H](N)C(=O)N1", "note": "[Boc-Dab(4-pentynoyl)-Orn(N3)-OMe]", "values": [
      {"measurement": "ring closure, yield over several steps", "setting": "[2]; from C#CCCC(=O)NCC[C@H](NC(=O)OC(C)(C)C)C(=O)N[C@@H](CCCN=[N+]=[N-])C(=O)OC, 15-membered ring", "value": 82, "unit": "%"}
    ]},
    {"smiles": "COC(=O)[C@@H]1CCCn2nncc2CNC(=O)NC[C@H](N)C(=O)N1", "note": "[Boc-Dap(CONH-propargyl)-Orn(N3)-OMe]", "values": [
      {"measurement": "ring closure, yield over several steps", "setting": "[2]; from C#CCNC(=O)NC[C@H](NC(=O)OC(C)(C)C)C(=O)N[C@@H](CCCN=[N+]=[N-])C(=O)OC, 14-membered ring", "value": 80, "unit": "%"}
    ]},
    {"smiles": "COC(=O)[C@@H]1CNC(=O)[C@H](Cc2ccccc2)n2nncc2CNC(=O)NCCCC[C@H](N)C(=O)N1", "note": "[Boc-Lys(CONH-propargyl)-Dap(N3-Phe)-OMe]", "values": [
      {"measurement": "ring closure, yield over several steps", "setting": "[2]; from C#CCNC(=O)NCCCC[C@H](NC(=O)OC(C)(C)C)C(=O)N[C@@H](CNC(=O)[C@H](Cc1ccccc1)N=[N+]=[N-])C(=O)OC, 18-membered ring", "value": 96, "unit": "%"}
    ]},
    {"smiles": "COC(=O)[C@@H]1CCCCn2nncc2CNC(=O)NCC[C@H](N)C(=O)N1", "note": "[Boc-Dab(CONH-propargyl)-Lys(N3)-OMe]", "values": [
      {"measurement": "ring closure, yield over several steps", "setting": "[2]; from C#CCNC(=O)NCC[C@H](NC(=O)OC(C)(C)C)C(=O)N[C@@H](CCCCN=[N+]=[N-])C(=O)OC, 16-membered ring", "value": 99, "unit": "%"}
    ]},
    {"smiles": "COC(=O)[C@@H]1CCCCn2nncc2CNC(=O)NC[C@H](N)C(=O)N1", "note": "[Boc-Dap(CONH-propargyl)-Lys(N3)-OMe]", "values": [
      {"measurement": "ring closure, yield over several steps", "setting": "[2]; from C#CCNC(=O)NC[C@H](NC(=O)OC(C)(C)C)C(=O)N[C@@H](CCCCN=[N+]=[N-])C(=O)OC, 15-membered ring", "value": 73, "unit": "%"}
    ]},
    {"smiles": "COC(=O)[C@@H]1CCCCNC(=O)[C@H](Cc2ccccc2)n2nncc2CNC(=O)NCCCC[C@H](N)C(=O)N1", "note": "[Boc-Lys(CONH-propargyl)-Lys(N3-Phe)-OMe]", "values": [
      {"measurement": "ring closure, yield over several steps", "setting": "[2]; from C#CCNC(=O)NCCCC[C@H](NC(=O)OC(C)(C)C)C(=O)N[C@@H](CCCCNC(=O)[C@H](Cc1ccccc1)N=[N+]=[N-])C(=O)OC, 21-membered ring", "value": 81, "unit": "%"}
    ]},
    {"smiles": "COC(=O)[C@@H]1CCCn2nncc2CCCC(=O)NC[C@H](N)C(=O)N1", "note": "[Boc-Dap(5-hexynoyl)-Orn(N3)-OMe]", "values": [
      {"measurement": "ring closure, yield over several steps", "setting": "[2]; from C#CCCCC(=O)NC[C@H](NC(=O)OC(C)(C)C)C(=O)N[C@@H](CCCN=[N+]=[N-])C(=O)OC, 15-membered ring", "value": 99, "unit": "%"}
    ]},
    {"smiles": "COC(=O)[C@@H]1CCCCNC(=O)[C@H](Cc2ccccc2)n2nncc2CNC(=O)NCC[C@H](N)C(=O)N1", "note": "[Boc-Dab(CONH-propargyl)-Lys(N3-Phe)-OMe]", "values": [
      {"measurement": "ring closure, yield over several steps", "setting": "[2]; from C#CCNC(=O)NCC[C@H](NC(=O)OC(C)(C)C)C(=O)N[C@@H](CCCCNC(=O)[C@H](Cc1ccccc1)N=[N+]=[N-])C(=O)OC, 19-membered ring", "value": 78, "unit": "%"}
    ]}
  ]
}
